Experimental data: ChEMBL document CHEMBL4145625 (J Med Chem, 2018)
Converted amounts (≈) assume the structure as drawn.

Columns and labels:
in vivo [1] = conditions: ICR, mouse, plasma, po, 30 mg/kg
NCI-H460 [2] = assay: cells; format: functional, cell-based; conditions: Homo sapiens, NCI-H460, 96 h
Description: Cytotoxicity against human NCI-H460 cells after 96 hrs by MTT assay

NCI-H460 [3] = conditions: Homo sapiens
Description: Antitumor activity against human NCI-H460 cells xenografted in po dosed BALB/c nude mouse assessed as tumor growth inhibition administered once daily after 16 days

MGC-803 [4] = assay: Antitumor activity against human MGC803 cells xenografted in BALB/c nude mouse assessed as tumor growth inhibition at 20 mg/kg, po administered once daily for 18 days measured at post last dose relative to control; format: functional; conditions: MGC-803, po, 432 h, read-out: TGI
DU-145 = assay: cells; format: functional, cell-based; conditions: Homo sapiens, DU-145, 96 h
Description: Cytotoxicity against human DU145 cells after 96 hrs by MTT assay

in vivo [5] = conditions: ICR, mouse, plasma, iv, 3 mg/kg
Mus musculus [6] = assay: Toxicity in human NCI-H460 cells xenografted BALB/c nude mouse assessed as reduction in body weight at 5 to 20 mg/kg, po administered once daily after 16 days; format: organism-based; conditions: in vivo, 384 h
HGC-27 [7] = assay: Antitumor activity against human HGC27 cells xenografted in BALB/c nude mouse assessed as tumor growth inhibition at 10 mg/kg, po administered once daily for 15 days measured at post last dose relative to control; format: functional; conditions: HGC-27, po, 360 h, read-out: TGI
NCI-H460 [8] = assay: Antitumor activity against human NCI-H460 cells xenografted in BALB/c nude mouse assessed as tumor growth inhibition at 5 mg/kg, po administered once daily after 16 days relative to control; format: functional; conditions: 384 h, read-out: TGI
in vivo [9] = conditions: ICR, mouse, plasma, po, 30 mg/kg; remark: listed apart in the source
MGC-803 [10] = assay: Antitumor activity against human MGC803 cells xenografted in BALB/c nude mouse assessed as tumor growth inhibition at 10 mg/kg, po administered once daily for 18 days measured at post last dose relative to control; format: functional; conditions: MGC-803, po, 432 h, read-out: TGI
Cytochrome P450 1A2 = target: T1, Cytochrome P450 1A2 (Homo sapiens, UniProt P05177)
T1 sequence (P05177 whole entry): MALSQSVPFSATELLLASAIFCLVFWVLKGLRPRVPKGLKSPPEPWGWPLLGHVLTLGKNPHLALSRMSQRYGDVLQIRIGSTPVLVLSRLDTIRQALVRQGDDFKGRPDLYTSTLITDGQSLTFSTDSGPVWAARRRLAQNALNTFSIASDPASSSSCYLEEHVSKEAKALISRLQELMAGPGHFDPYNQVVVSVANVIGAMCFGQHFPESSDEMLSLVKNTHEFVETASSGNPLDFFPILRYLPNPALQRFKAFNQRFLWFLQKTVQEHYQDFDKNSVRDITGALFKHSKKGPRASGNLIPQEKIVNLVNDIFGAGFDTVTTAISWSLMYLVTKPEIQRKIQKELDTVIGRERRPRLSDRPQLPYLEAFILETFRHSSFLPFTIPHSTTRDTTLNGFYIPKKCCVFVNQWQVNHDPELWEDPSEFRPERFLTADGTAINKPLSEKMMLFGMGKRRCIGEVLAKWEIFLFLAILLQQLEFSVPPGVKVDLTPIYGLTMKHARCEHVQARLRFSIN
Description: Inhibition of CYP1A2 in human liver microsomes assessed as reduction in acetaminophen formation using phenacetin as substrate after 10 to 20 mins in presence of NADPH by LC-MS/MS analysis

[11] = target: RAC-alpha serine/threonine-protein kinase (Homo sapiens, UniProt P31749); assay: Inhibition of AKT1 (unknown origin) using FAM-labeled peptide as substrate by mobility shift assay
Chain of RAC-alpha serine/threonine-protein kinase (P31749 whole entry): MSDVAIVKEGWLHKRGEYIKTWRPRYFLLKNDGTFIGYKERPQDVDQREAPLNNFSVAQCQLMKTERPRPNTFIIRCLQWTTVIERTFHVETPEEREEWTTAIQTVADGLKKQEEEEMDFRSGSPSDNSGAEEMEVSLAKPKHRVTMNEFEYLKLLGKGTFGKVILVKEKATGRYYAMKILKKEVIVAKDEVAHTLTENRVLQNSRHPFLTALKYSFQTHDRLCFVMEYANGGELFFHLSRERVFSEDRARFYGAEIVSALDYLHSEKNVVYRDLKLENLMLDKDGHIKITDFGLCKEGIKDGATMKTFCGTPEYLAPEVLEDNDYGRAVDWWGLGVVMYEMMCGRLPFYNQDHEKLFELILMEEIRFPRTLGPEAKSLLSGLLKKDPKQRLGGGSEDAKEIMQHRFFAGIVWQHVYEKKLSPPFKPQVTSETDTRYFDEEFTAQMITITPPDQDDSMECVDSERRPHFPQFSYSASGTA

NCI-H460 [12] = assay: Antitumor activity against human NCI-H460 cells xenografted in BALB/c nude mouse assessed as tumor growth inhibition at 10 mg/kg, po administered once daily after 16 days relative to control; format: functional; conditions: 384 h, read-out: TGI
in vivo [13] = conditions: ICR, mouse, po
Description: Toxicity in po dosed ICR mouse administered as single dose via oral gavage measured after 14 days

in vivo [14] = conditions: ICR, mouse, plasma, iv, 3 mg/kg; remark: listed apart in the source
Mus musculus [15] = assay: Toxicity in human MGC803 cells xenografted BALB/c nude mouse assessed as reduction in body weight at 5 to 20 mg/kg, po administered daily for 18 days measured at post last dose; format: organism-based; conditions: in vivo, 432 h
NCI-H460 [16] = assay: Antitumor activity against human NCI-H460 cells xenografted in BALB/c nude mouse assessed as tumor growth inhibition at 20 mg/kg, po administered once daily after 16 days relative to control; format: functional; conditions: 384 h, read-out: TGI
Cytochrome P450 2E1 = Cytochrome P450 2E1 (Homo sapiens, UniProt P05181)
Chain of Cytochrome P450 2E1 (P05181 whole entry): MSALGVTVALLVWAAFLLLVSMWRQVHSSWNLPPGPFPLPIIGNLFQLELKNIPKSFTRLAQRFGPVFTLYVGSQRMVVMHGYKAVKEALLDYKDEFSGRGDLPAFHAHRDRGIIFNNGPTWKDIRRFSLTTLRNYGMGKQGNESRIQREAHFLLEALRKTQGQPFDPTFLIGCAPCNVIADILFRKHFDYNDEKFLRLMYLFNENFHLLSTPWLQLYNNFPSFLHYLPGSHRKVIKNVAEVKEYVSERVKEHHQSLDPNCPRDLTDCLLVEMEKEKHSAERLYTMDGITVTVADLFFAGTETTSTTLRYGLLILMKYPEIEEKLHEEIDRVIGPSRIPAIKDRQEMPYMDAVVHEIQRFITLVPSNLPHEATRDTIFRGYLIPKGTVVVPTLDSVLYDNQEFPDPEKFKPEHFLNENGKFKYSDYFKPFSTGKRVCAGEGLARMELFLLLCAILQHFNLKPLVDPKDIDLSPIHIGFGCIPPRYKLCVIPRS
Description: Inhibition of CYP2E1 in human liver microsomes assessed as reduction in 6-Hydroxychlorzoxazone formation using chlorzoxazone as substrate after 10 to 20 mins in presence of NADPH by LC-MS/MS analysis

in vivo [17] = conditions: ICR, mouse, brain, po, 30 mg/kg
Mus musculus [18] = assay: Toxicity in human HGC27 cells xenografted in BALB/c nude mouse assessed as reduction in body weight at […], po administered once daily for 15 days measured at post last dose; format: organism-based; conditions: in vivo, 360 h
in vitro [19] = conditions: human, plasma
Description: Protein binding in human plasma at 2 uM after 6 hrs by LC-MS/MS analysis

Mus musculus [20] = assay: In vivo inhibition of PI3Kalpha in po dosed athymic BALB/c nude mouse xenografted with human NCI-H460 cells administered as single dose via gavage after 2 to 24 hrs; format: functional, organism-based
in vivo [21] = conditions: athymic BALB/c nude, mouse, plasma, po, 10 mg/kg
Salmonella typhimurium [22] = assay: Mutagenicity in Salmonella typhimurium TA1535 up at 50 ug/plate after 72 hrs in presence of S9 fraction by Ames test; format: toxicity, organism-based; conditions: salmonella enterica subsp. enterica serovar typhimurium, s9, 72 h
Salmonella typhimurium [23] = assay: Mutagenicity in Salmonella typhimurium TA98 at 500 ug/plate after 72 hrs by Ames test; format: toxicity, organism-based; conditions: salmonella enterica subsp. enterica serovar typhimurium
U-87 MG = assay: Antitumor activity against Luc tagged human U87MG cells xenografted in BALB/c nude mouse glioblastoma orthotopic model assessed as tumor growth inhibition at 5 mg/kg, po qd by MRI method relative to control; format: functional, U-87MG ATCC; conditions: read-out: TGI
Salmonella typhimurium [24] = assay: Mutagenicity in Salmonella typhimurium TA97 at 500 ug/plate after 72 hrs by Ames test; format: toxicity, organism-based; conditions: salmonella enterica subsp. enterica serovar typhimurium
Salmonella typhimurium [25] = assay: Mutagenicity in Salmonella typhimurium TA100 at 500 ug/plate after 72 hrs by Ames test; format: toxicity, organism-based; conditions: salmonella enterica subsp. enterica serovar typhimurium
HGC-27 [26] = assay: Antitumor activity against human HGC27 cells xenografted in BALB/c nude mouse assessed as tumor growth inhibition at […], po administered once daily for 15 days measured at post last dose relative to control; format: functional; conditions: HGC-27, po, 360 h, read-out: TGI
NCI-H460 [27] = assay: Antitumor activity against human NCI-H460 cells xenografted in po dosed athymic BALB/c nude mouse administered as single dose via gavage after 2 to 24 hrs; format: functional, organism-based
in vitro [28] = conditions: ICR, mouse, plasma
Description: Protein binding in ICR mouse plasma at 2 uM after 6 hrs by LC-MS/MS analysis

[29] = mouse, in vivo, po, 10 mg/kg, 24 h
Mus musculus [30] = assay: Toxicity in human HGC27 cells xenografted BALB/c nude mouse assessed as reduction in body weight at 10 mg/kg, po administered once daily for 15 days measured at post last dose; format: organism-based; conditions: in vivo, 360 h

Structure (SMILES) | Tmax (in vivo [1]) [min] | IC50 (NCI-H460 [2]) [µM] | IC50 (DU-145) [µM] | AUC(0-t) (in vivo [5]) [µg·h/mL] | inhibition in vivo at 10 mg/kg (HGC-27 [7]) [%] | AUC(0-inf) (in vivo [9]) [µg·h/mL] | IC50 (Cytochrome P450 1A2) [µM] | IC50 [11] [µM] | MTD at 336 h (in vivo [13]) [mg/kg] | AUC(0-inf) (in vivo [14]) [µg·h/mL] | IC50 (Cytochrome P450 2E1) [µM] | Cmax (in vivo [17]) [ng/g] | inhibition in vivo at 5 mg/kg (U-87 MG) [%] | also measured
COc1ncc(-c2cc(O[C@@H]3CCOC3)c3nc(N)nc(C)c3c2)cc1NS(=O)(=O)c1ccc(F)cc1F | 4.8 | 0.093 | 2.1 | 0.904 | 74.7 | 9.04 | > 10 | > 10 | > 50 | 0.911 | > 10 |  |  | TGI (NCI-H460 [3]): Dose-dependent effect; inhibition in vivo at 20 mg/kg (MGC-803 [4]): 77.8%; Activity (Mus musculus [6]): Toxic; inhibition in vivo at 5 mg/kg (NCI-H460 [8]): 41.9%; inhibition in vivo at 10 mg/kg (MGC-803 [10]): 69.3%; inhibition in vivo at 10 mg/kg (NCI-H460 [12]): 83.1%; Activity (Mus musculus [15]): Toxic; inhibition in vivo at 20 mg/kg (NCI-H460 [16]): 75.9%
CNc1nc(C)c2cc(-c3cnc(OC)c(NS(=O)(=O)c4ccc(F)cc4F)c3)cc(OC3CCOCC3)c2n1 | 10.8 | 0.059 | 5.2 | 3.48 |  | 16.1 | > 10 | > 10 | > 40 | 3.5 | > 10 | 723 | 96 | Activity (Mus musculus [18]): Toxic; fraction unbound at 6 h, 2 µM (in vitro [19]): 0.0454; IC90 (Mus musculus [20]): 4 ng/mL (≈ 7 nM); IC50 (Mus musculus [20]; Mus musculus, BALB/c, NCI-H460): 0.8 ng/mL (≈ 1.4 nM); AUC(0-t) at 24 h (in vivo [21]): 5.46 µg·h/mL; Activity (Salmonella typhimurium [22]): Toxic; Activity (Salmonella typhimurium [23]): Toxic; Activity (Salmonella typhimurium [24]): Toxic; Activity (Salmonella typhimurium [25]): Toxic; inhibition in vivo at […] (HGC-27 [26]): 94.1%; IC50 (NCI-H460 [27]): 34 ng/mL (≈ 59.5 nM); fraction unbound at 6 h, 2 µM (in vitro [28]): 0.0842; AUC [29]: 5576 ng·h/g
CNc1nc(C)c2cc(-c3cnc(OC)c(NS(=O)(=O)c4ccc(F)cc4F)c3)cc(O[C@@H]3CCOC3)c2n1 | 15 |  | 6.5 | 1.45 | 94.6 | 17.1 | > 10 | > 10 | > 40 | 1.46 | > 10 | 433 | 89.4 | Activity (Mus musculus [30]): Toxic
